Reference: ChEMBL document CHEMBL4346719, “Discovery of novel acylhydrazone neuraminidase inhibitors” (Eur J Med Chem, 2019)
pIC50: −log10 of the molar value.

tested on: not listed separately; test: Inhibition of influenza virus A/WSN/1933 (H1N1) neuraminidase using MUNANA as substrate preincubated for 10 mins followed by substrate addition and measured for 15 mins by fluorescence assay; parameters: species or system Influenza A virus ([…])

| SMILES | pIC50 |
| --- | --- |
| CC(=O)N[C@H]1[C@H]([C@H](O)[C@H](O)CO)OC(P(=O)(O)O)=C[C@@H]1NC(=N)N | 9.22 |

target: Neuraminidase (Influenza A virus, UniProt B4URF0)
Sequence (B4URF0 whole entry): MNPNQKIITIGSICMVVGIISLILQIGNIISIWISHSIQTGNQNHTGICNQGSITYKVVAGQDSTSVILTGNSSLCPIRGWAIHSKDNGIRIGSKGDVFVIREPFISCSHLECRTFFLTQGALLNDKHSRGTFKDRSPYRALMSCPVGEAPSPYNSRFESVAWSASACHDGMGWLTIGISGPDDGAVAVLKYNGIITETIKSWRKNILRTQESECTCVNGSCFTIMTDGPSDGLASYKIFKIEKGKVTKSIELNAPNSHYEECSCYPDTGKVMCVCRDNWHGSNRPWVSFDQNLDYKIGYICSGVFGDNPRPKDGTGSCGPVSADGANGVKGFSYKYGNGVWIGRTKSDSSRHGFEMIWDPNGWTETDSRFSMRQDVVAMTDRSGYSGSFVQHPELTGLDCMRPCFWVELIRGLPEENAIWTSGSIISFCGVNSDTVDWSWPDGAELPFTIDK

| SMILES | pIC50 |
| --- | --- |
| COc1ccccc1/C=N/NC(=O)C(=O)NCCCN1CCOCC1 | 5.15 |
| COc1ccc(/C=N/NC(=O)C(=O)NCCCN2CCOCC2)cc1OC | 5.63 |
| COc1cc(/C=N/NC(=O)C(=O)NCCCN2CCOCC2)ccc1O | 5.33 |
| O=C(NCCCN1CCOCC1)C(=O)N/N=C/c1ccc(O)c([N+](=O)[O-])c1 | 5.36 |
| COc1cc(/C=N/NC(=O)C(=O)NCCCN2CCOCC2)cc(OC)c1O | 5.50 |
| O=C(NCCCN1CCOCC1)C(=O)N/N=C/c1ccccc1O | 5.19 |
| COc1cc(/C=N/NC(=O)C(=O)NCCCN2CCOCC2)cc(OC)c1OC | 5.58 |
